Test results as given in paper PMC9739180, “Discovery of a Flavonoid FM04 as a Potent Inhibitor to Reverse P-Glycoprotein-Mediated Drug Resistance in Xenografts and Improve Oral Bioavailability of Paclitaxel” (International Journal of Molecular Sciences, 2022).

Molecular target: P-gp (Homo sapiens, UniProt P08183)
Experiment: Transepithelial transport of PTX, Caco-2 transwell assay
Assay type: in vitro ADME
Protocol: Figure 7 Mechanistic study of FM04 to increase the oral PTX absorption. (A) transepithelial permeability of PTX in Caco-2 transwell assay. When confluent monolayer of Caco2 cells was formed on the transwell, the permeability of PTX (10 μM) was studied with or without FM04 (10 μM). For apical to basolateral transport (A to B), compound was added at the apical side (donor) and samples of the medium collected at the basal side (receiver) at 0, 20, 40, 60, 80, 100 and 120 min and vice versa for basal to apical transport (B to A). The PTX level was determined using UPLC-MS/MS. The relative % of PTX was presented as mean ± standard error of mean. N = 2–3 independent experiments. Impact of FM04 on PTX metabolism. […] After incubation, the levels of PTX, metabolites 6α-hydroxpaclitaxel (6α-OHP) and p3′-hydroxpaclitaxel (p3-OHP) were determined by HPLC-MS/MS. (B) changes in PTX. […]
Caco-2 cells in between passage number 21 and 30 were used for the experiment, 1 × 10^5 cells/cm^2 Caco-2 cells were seeded in Costar 6-well transwell plate (Corning Inc). […] The integrity of cell monolayers was evaluated on the day of experiments by measuring the trans-epithelial electrical resistance (TEER) of the cell monolayers. […] Drug transport was evaluated at 37 °C by incubating the cells in media containing PTX (10 μM) with or without FM04 (10 μM) at the donor chamber and samples collected at the receiver chamber. […]

Sequence of P-gp (P08183 whole entry): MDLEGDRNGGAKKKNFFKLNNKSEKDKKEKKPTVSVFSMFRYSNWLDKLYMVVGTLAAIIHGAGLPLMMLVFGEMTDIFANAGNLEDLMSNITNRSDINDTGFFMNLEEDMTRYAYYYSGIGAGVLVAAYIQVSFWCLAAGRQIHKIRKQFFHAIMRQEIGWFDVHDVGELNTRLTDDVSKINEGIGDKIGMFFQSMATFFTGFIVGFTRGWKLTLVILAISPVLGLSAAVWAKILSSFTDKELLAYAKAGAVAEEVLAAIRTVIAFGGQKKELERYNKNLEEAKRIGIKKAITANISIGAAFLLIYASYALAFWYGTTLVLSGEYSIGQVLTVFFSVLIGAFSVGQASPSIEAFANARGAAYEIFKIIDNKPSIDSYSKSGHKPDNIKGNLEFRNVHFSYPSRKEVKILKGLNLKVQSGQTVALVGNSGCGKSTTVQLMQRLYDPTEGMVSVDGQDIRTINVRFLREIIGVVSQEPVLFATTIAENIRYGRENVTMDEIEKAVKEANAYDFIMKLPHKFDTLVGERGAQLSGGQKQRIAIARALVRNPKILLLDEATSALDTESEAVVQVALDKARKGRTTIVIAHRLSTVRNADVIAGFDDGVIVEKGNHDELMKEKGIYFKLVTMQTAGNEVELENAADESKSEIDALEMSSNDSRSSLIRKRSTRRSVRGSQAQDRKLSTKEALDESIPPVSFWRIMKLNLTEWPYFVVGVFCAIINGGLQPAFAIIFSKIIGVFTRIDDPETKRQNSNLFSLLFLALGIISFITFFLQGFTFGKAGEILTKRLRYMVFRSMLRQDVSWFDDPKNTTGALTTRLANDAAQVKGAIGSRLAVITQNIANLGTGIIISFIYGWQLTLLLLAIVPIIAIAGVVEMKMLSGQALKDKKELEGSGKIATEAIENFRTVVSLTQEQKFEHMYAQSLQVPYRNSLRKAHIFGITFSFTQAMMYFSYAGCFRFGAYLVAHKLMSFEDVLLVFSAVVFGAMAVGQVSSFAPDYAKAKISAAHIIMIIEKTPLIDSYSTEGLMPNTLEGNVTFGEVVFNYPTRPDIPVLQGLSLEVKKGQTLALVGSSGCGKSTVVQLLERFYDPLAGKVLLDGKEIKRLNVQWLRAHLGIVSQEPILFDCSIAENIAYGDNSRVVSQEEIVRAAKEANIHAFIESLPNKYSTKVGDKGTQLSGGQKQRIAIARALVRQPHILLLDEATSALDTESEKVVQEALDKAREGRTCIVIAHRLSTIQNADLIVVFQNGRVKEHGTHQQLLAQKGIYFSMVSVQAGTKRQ

| decrease of PTX transport from B to A (PTX 10 μM + FM04 10 μM) [%] | Compound | direction of transepithelial transport of PTX (PTX 10 µM without FM04) |
| --- | --- | --- |
| 17 | O=c1cc(-c2ccc(OCCOCCNCc3ccccc3)cc2)oc2ccccc12 [FM04, 2-(4-(2-(2-(benzylamino)ethoxy)ethoxy)phenyl)-4H-chromen-4-one] |  |
|  | CC(=O)O[C@H]1C(=O)[C@@]2(C)[C@H]([C@H](OC(=O)c3ccccc3)[C@]3(O)C[C@H](OC(=O)[C@H](O)[C@@H](NC(=O)c4ccccc4)c4ccccc4)C(C)=C1C3(C)C)[C@]1(OC(C)=O)CO[C@@H]1C[C@@H]2O [PTX, paclitaxel] | only pumped from B to A, but not A to B |
